Measured values taken from BindingDB's records for patent US20240376113 (Volastra Therapeutics, 2024).

Target: T1, Ectonucleotide pyrophosphatase/phosphodiesterase family member 1 (Homo sapiens, UniProt P22413)
T1 sequence (P22413 whole entry): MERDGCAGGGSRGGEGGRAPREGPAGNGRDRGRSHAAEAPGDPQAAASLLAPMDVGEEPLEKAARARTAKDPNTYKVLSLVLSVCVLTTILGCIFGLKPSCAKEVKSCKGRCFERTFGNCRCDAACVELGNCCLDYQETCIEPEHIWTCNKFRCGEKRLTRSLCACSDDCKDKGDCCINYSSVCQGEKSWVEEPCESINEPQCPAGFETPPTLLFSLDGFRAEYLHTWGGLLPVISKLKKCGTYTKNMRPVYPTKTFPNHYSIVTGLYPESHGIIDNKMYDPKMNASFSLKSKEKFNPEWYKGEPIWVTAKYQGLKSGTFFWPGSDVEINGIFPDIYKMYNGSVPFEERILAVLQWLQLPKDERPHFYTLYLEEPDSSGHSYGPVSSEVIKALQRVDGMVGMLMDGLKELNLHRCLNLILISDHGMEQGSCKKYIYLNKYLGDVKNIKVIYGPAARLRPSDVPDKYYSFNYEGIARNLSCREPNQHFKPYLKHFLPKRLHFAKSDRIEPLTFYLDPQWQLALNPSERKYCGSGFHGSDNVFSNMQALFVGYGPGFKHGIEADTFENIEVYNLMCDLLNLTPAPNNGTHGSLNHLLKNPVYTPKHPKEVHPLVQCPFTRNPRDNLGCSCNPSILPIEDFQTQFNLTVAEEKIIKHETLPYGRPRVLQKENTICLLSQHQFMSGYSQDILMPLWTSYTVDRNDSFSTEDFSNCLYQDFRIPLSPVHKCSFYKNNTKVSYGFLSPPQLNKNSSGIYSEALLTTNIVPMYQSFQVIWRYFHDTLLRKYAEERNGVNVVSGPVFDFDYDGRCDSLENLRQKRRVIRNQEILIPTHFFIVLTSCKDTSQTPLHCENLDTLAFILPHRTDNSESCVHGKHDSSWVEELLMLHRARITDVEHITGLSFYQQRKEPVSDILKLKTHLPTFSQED
Experiment: Inhibition of ENPP1 hydrolysis of 2′,3′-cGAMP (Assay 1)
Protocol: Test compounds were plated in a 3× dilution scheme in a 384 well plate.

Compound | Ki [nM]
Cc1c(Cc2ccc(S(C)(=N)=O)cc2)c(N)cc2ncnn12 (configuration not stated) [US20240376113, Compound 89] | 28
Cc1c(Cc2ccc(S(C)(=N)=O)cc2)c(N(C)C)nc2ncnn12 (configuration not stated) [US20240376113, Compound 86] | 0.138
